± gives the expanded uncertainty stated by the source.
Settings: Crystal; visual observation

| Normal melting temperature [°C] | Structure (SMILES) |
| --- | --- |
| 54.2 ± 0.7 | CCn1cc[n+](C)c1.Cc1ccc(S(=O)(=O)[O-])cc1 [1-ethyl-3-methylimidazolium 4-methylbenzenesulfonate] |
| 77.1 ± 0.7 | CCn1cc[n+](C)c1.[Br-] [1-ethyl-3-methylimidazolium bromide] |
